According to patent US20230278972A1, “SUBSTITUTED HALOALKYL SULFONANILIDE HERBICIDES” (FMC Corporation, priority 2020, published 2023):
Read-outs that look alike come from different tables or passages of the source.

How the values were obtained:
[1] = test system: pigweed (Amaranthus retroflexus); experiment: Test A preemergence, pigweed; format: in vivo; conditions: Amaranthus retroflexus, pre-emergence, 240 h; for pest or weed control at 125 g/ha: 125 g ai/ha; for pest or weed control at 500 g/ha: 500 g ai/ha
How it was run: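 Preemergence: seeded pots of loam plus sand received a directed soil spray. Postemergence: seedlings at one to two leaves, 2 to 10 cm high, were oversprayed. Each compound was formulated in a non-phytotoxic solvent mix that included a surfactant.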

[2] = visual injury on 0 to 100 scale (0 no effect, 100 complete control), approximately 10 days, read-out: Pigweed plant response rating
[3] = 0 to 100 scale (0 no effect, 100 complete control), read-out: Plant response rating, Pigweed
[4] = visual injury, 0 to 100 scale (0 no effect, 100 complete control), approx. 10 days, read-out: Plant response rating, Pigweed

SMILES	pest or weed control at 125 g/ha [1, 2] [%]	pest or weed control at 500 g/ha [1, 3] [%]	pest or weed control at 125 g/ha [1, 4] [%]	pest or weed control at 500 g/ha [1, 2] [%]	melting point [°C]
Cc1cc(C)c(C2=NO[C@@H]3CCC[C@H]23)cc1NS(=O)(=O)C(F)(F)F [Compound 103, N-[2,4-Dimethyl-5-[(3aR,6aR)-3a,5,6,6a-tetrahydro-4H-cyclopent[d]isoxazol-3-yl]phenyl]-1,1,1-trifluoromethanesulfonamide]	100	100	–	–	–
Cc1cc(C)c(N(COC(=O)C(C)(C)C)S(=O)(=O)C(F)(F)F)cc1C1=NO[C@@H]2CCC[C@H]12 [Compound 100, [[2,4-Dimethyl-5-[(3aR,6aR)-3a,5,6,6a-tetrahydro-4H-cyclopent[d]isoxazol-3-yl]phenyl][(trifluoromethyl)sulfonyl]amino]methyl 2,2-dimethylpropanoate]	70	80	–	–	–
Cc1cc(Cl)c(NS(=O)(=O)C(F)(F)F)cc1C(=O)N1CCOCC1 [Compound 16, N-[2-Chloro-4-methyl-5-(4-morpholinylcarbonyl)phenyl]-1,1,1-trifluoromethanesulfonamide]	100	100	–	–	–
Cc1cc(Cl)c(NS(=O)(=O)C(F)(F)F)cc1C(=O)N1CCC(F)(F)CC1 [Compound 229, N-[2-Chloro-5-[(4,4-difluoro-1-piperidinyl)carbonyl]-4-methylphenyl]-1,1,1-trifluoromethanesulfonamide]	–	–	100	100	–
Cc1cc(C)c(C2=NOC3(CCCC3)C2)cc1NS(=O)(=O)C(F)(F)F [Compound 207, N-[2,4-Dimethyl-5-(1-oxa-2-azaspiro[4.4]non-2-en-3-yl)phenyl]-1,1,1-trifluoromethanesulfonamide]	–	100	100	–	–
Cc1c(NS(=O)(=O)C(F)(F)F)cc(C(=O)N(C)C)c(C)c1F [Compound 128, 3-Fluoro-N,N,2,4-tetramethyl-5-[[(trifluoromethyl)sulfonyl]amino]benzamide]	100	100	–	–	243 to 245
Cc1c(NS(=O)(=O)C(F)(F)F)cc(C(=O)N2CCOCC2)c(C)c1C [Compound 289, 1,1,1-Trifluoro-N-[2,3,4-trimethyl-5-(4-morpholinylcarbonyl)phenyl]methanesulfonamide]	–	–	–	–	247 to 250
Cc1cc(C)c(N(COC(=O)C(C)(C)C)S(=O)(=O)C(F)(F)F)cc1C1=NOC2(CCCC2)C1 [Compound 140, [[2,4-Dimethyl-5-(1-oxa-2-azaspiro[4.4]non-2-en-3-yl)phenyl][(trifluoromethyl)sulfonyl]amino]methyl 2,2-dimethylpropanoate]	0	50	–	–	–
Cc1cc(C)c(C2=NOC3COCCC23)cc1NS(=O)(=O)C(F)(F)F (centres unmarked) [Compound 121, N-[2,4-Dimethyl-5-(3a,4,7,7a-tetrahydro-5H-pyrano[4,3-d]isoxazol-3-yl)phenyl]-1,1,1-trifluoromethanesulfonamide]	–	–	–	–	117 to 120
Cc1cc(Cl)c(NS(=O)(=O)C(F)(F)F)cc1C(=O)N1CCCCC1 [Compound 18, N-[2-Chloro-4-methyl-5-(1-piperidinylcarbonyl)phenyl]-1,1,1-trifluoromethanesulfonamide]	100	100	–	–	–
Cc1cc(C)c(C2=NOC3(CCCCC3)C2)cc1NS(=O)(=O)C(F)(F)F [Compound 197, N-[2,4-Dimethyl-5-(1-oxa-2-azaspiro[4.5]dec-2-en-3-yl)phenyl]-1,1,1-trifluoromethanesulfonamide]	–	100	80	–	–
Cc1c(NS(=O)(=O)C(F)(F)F)cc(C(=O)N2CCOCC2)c(C)c1F [Compound 190, 1,1,1-Trifluoro-N-[3-fluoro-2,4-dimethyl-5-(4-morpholinylcarbonyl)phenyl]methanesulfonamide]	–	100	100	–	236 to 240
Cc1cc(C)c(C(=O)N2CCC(F)(F)CC2)cc1NS(=O)(=O)C(F)(F)F [Compound 241, N-[5-[(4,4-Difluoro-1-piperidinyl)carbonyl]-2,4-dimethylphenyl]-1,1,1-trifluoromethanesulfonamide]	–	–	100	100	–
